According to PubChem BioAssay (NCI):
In brackets after ≈: the same amount, converted by molar mass.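 Step 1: Grow cells in 96-well plates. Step 2: Expose to compound for 48 hours at 5 concentrations. Step 3: Interpolate endpoints linearly; if unreached, use highest concentration. GI50: concentration for 50% inhibition of growth. TGI: concentration producing complete growth inhibition.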

Key:
Assay in all cases: inhibition of tumour cell growth, NCI panel, 48 h
[1] = tested on: OVCAR-8 ovarian
[2] = tested on: HOP-92 NSCLC
[3] = tested on: ACHN renal
[4] = tested on: KM12 colon
[5] = tested on: HT29 colon
[6] = tested on: SK-MEL-2 melanoma
[7] = tested on: K-562 leukemia
[8] = tested on: SR leukemia
[9] = tested on: RXF 393 renal

SMILES	TGI [1]	TGI [2]	TGI [3]	TGI [4]	TGI [5]	TGI [6]	TGI [7]	TGI [8]	TGI [9]	GI50 [1]	GI50 [2]	GI50 [3]	GI50 [4]	GI50 [5]	GI50 [6]	GI50 [7]	GI50 [9]	GI50 [8] [µg/mL]
O=C(O)CCC(NC(=O)c1ccccc1)C(=O)O (stereo not drawn)	> 100 µM	> 100 µM	> 100 µM	> 100 µM	> 100 µM	> 100 µM	> 100 µM	> 100 µM	> 100 µM									
O=C1C2C=CC(C2)C(c2ccc(O)cc2)N1O (stereo not drawn)	> 100 µM	> 100 µM	> 100 µM	> 100 µM	> 100 µM	> 100 µM	> 100 µM	> 100 µM										
Cn1ccc2c(C(=O)c3ccccc3)cccc2c1=O	> 100 µM	> 100 µM	> 100 µM	> 100 µM	> 100 µM	> 100 µM		> 100 µM	> 100 µM									
COc1ccccc1C1c2cc3c(cc2OC(O)(CO)C1C(=O)O)OCO3 (stereo not drawn) (tested in a mixture with another compound)	> 100 µM	> 100 µM	> 100 µM	> 100 µM	> 100 µM	> 100 µM	> 100 µM	> 100 µM	> 100 µM									
CC(NCCC(=O)N(CCC(=O)N(CCC(=O)N(CCC(=O)N(CCC(=O)N(CCC(=O)N(CCC(=O)N(CCC(=O)N(CCC(=O)N(CCC(=O)O)[C@H](C)c1ccccc1)[C@H](C)c1ccccc1)[C@H](C)c1ccccc1)[C@H](C)c1ccccc1)[C@H](C)c1ccccc1)[C@H](C)c1ccccc1)[C@H](C)c1ccccc1)[C@H](C)c1ccccc1)[C@H](C)c1ccccc1)c1ccccc1 (stereo partly drawn)	> 47.1 µM	2.34 µM	> 43.9 µM	4.9 µM	5.37 µM	7.97 µM	> 75 µM		3.78 µM	3.45 µM	0.753 µM	5.05 µM	1.76 µM	1.6 µM	1.9 µM	2.29 µM	1.47 µM	
Cc1ccc(NC(=O)C(=O)CC(=O)c2c(C)n([O-])c3ccccc3[n+]2=O)cc1	55.8 µM	> 100 µM	> 100 µM	> 100 µM	86.4 µM	53 µM	56.4 µM	49.8 µM	> 100 µM									
CN(C)C=[N+]=[N-]	> 100 µM	> 100 µM	> 100 µM	> 100 µM	> 100 µM	> 100 µM	> 100 µM	> 100 µM	> 100 µM									
COc1cc2c(cc1OC)[C@H]1C(COC(=O)c3ccccc3)CSC(=Nc3ccccc3)N1CC2 (stereo partly drawn)	> 100 µM	> 100 µM	> 100 µM	> 100 µM	> 100 µM	> 100 µM		> 100 µM	> 100 µM									
NCCN.NCCN.O=C([O-])CCl.O=C([O-])CCl.[Co+3].[O-][Cl+3]([O-])([O-])[O-]	> 100 µM	> 100 µM	> 100 µM	> 100 µM	> 100 µM	> 100 µM	> 100 µM			> 100 µM	> 100 µM	> 100 µM	> 100 µM	> 100 µM	> 100 µM	> 100 µM		
C[N+]1(C)C/C(=C\c2ccccc2)C(=O)/C(=C/c2ccccc2)C1	> 100 µM	> 100 µM	> 100 µM	> 100 µM	> 100 µM		> 100 µM	> 100 µM	> 100 µM									
Cc1c(C(=O)CC(=O)C(=O)Nc2ccc(Cl)cc2)[n+](=O)c2ccccc2n1[O-]	> 100 µM	> 100 µM	> 100 µM	> 100 µM		> 100 µM	> 100 µM											
O=[N+]([O-])c1cc(C2SCc3nc4ccccc4n32)ccc1Cl (stereo not drawn)	> 100 µM	49.3 µM	> 100 µM	31.3 µM	> 100 µM	50.9 µM	> 100 µM	> 100 µM	79 µM									
O=C(O)CNS(=O)(=O)c1ccc(NC(=O)CI)cc1	48.6 µM	36.4 µM	> 100 µM	68.5 µM	54.4 µM	73.6 µM	62.1 µM		31.1 µM									
COc1ccc(S(=O)(=O)N/N=C/c2cc(I)cc([N+](=O)[O-])c2O)cc1OC	> 100 µM	46 µM	> 100 µM	> 100 µM	> 100 µM	45.6 µM	> 100 µM											
Cc1[nH]c(=O)n2c(C)nnc2c1C(=O)Nc1cc(Cl)cc(Cl)c1	> 100 µM	64 µM	> 100 µM	> 100 µM	> 100 µM		> 100 µM	66.5 µM	42 µM									
C[C@]12CCC(=O)C(O)=C1CC[C@@H]1C2CC[C@]2(C)Nc3c(cnn3-c3ccccc3)CC12 (stereo partly drawn)	> 100 µM		> 100 µM	> 100 µM	> 100 µM	> 100 µM	> 100 µM		> 100 µM									

SMILES	TGI [1]	TGI [2]	TGI [3]	TGI [4]	TGI [5]	TGI [6]	TGI [7]	TGI [8]	TGI [9]	GI50 [1]	GI50 [2]	GI50 [3]	GI50 [4]	GI50 [5]	GI50 [6]	GI50 [7]	GI50 [9]	GI50 [8] [µg/mL]
COc1ccc2c(c1)Oc1cc(O)ccc1[C@@H]2c1ccccc1C(=O)NC(C)c1ccccc1 (stereo partly drawn)	46.7 µM		41.1 µM	33.9 µM	34 µM	46.6 µM	> 100 µM		29.9 µM									
COc1ccc(CC(=O)NCCc2ccc(OC)c(OC)c2)cc1Br	> 100 µM	> 100 µM	> 100 µM	> 100 µM	> 100 µM	> 100 µM	> 100 µM	> 100 µM	> 100 µM									
Cc1cc(NS(=O)(=O)c2ccc(NC(=O)c3ccc(Cl)c4c(Nc5ccc(S(=O)(=O)N=C(N)N)cc5)c5ccccc5nc34)cc2)no1	> 100 µM		> 100 µM	> 100 µM	> 100 µM		> 100 µM	67.9 µM	48.6 µM									
O=C(NCCCCCCNC(=O)OCCSCCn1cc(C(=O)NC(=O)OCc2ccccc2)c(=O)[nH]c1=O)OCCSCCn1cc(C(=O)NC(=O)OCc2ccccc2)c(=O)[nH]c1=O	> 100 µM	> 100 µM	> 100 µM	> 100 µM	> 100 µM	> 100 µM	> 100 µM		> 100 µM									
Fc1ccccc1C1SCc2nc3ccccc3n21 (stereo not drawn)	> 100 µM	72.7 µM	> 100 µM	> 100 µM	> 100 µM	> 100 µM	> 100 µM	> 100 µM	> 100 µM									
CC(C)(CN1CCCCC1)C(=O)/C=C/c1ccc(Cl)cc1	5.51 µM	4.64 µM	17.2 µM	11.2 µM	11.7 µM		12.3 µM	7.15 µM	13.8 µM									
O=c1nc(NC(c2ccccc2)(c2ccccc2)c2ccccc2)ccn1CCNCCn1ccc(NC(c2ccccc2)(c2ccccc2)c2ccccc2)nc1=O	38.7 µM	24.4 µM	> 100 µM	11.9 µM	24.5 µM	9.32 µM	> 100 µM		25.6 µM									
NC1=C(c2nc(-c3ccccc3)cs2)C(c2ccc(Br)cc2)c2c(c3ccccc3oc2=O)O1 (stereo not drawn)	> 150 µg/mL	102 µg/mL	> 150 µg/mL	> 150 µg/mL	> 150 µg/mL	> 150 µg/mL	> 150 µg/mL	> 150 µg/mL	141 µg/mL	112 µg/mL	38.4 µg/mL	129 µg/mL	> 150 µg/mL	148 µg/mL	89 µg/mL	77.1 µg/mL	40.7 µg/mL	55.2 (≈ 104 µM)
O=C1CCCC(=O)N1CCc1c[nH]c2ccccc12	> 100 µM	> 100 µM	> 100 µM	> 100 µM	> 100 µM	> 100 µM	> 100 µM	> 100 µM	> 100 µM									
COc1cc(C(O)C(=O)c2nc3ccc([N+](=O)[O-])cc3[nH]c2=O)ccc1O (stereo not drawn)	> 100 µM		> 100 µM	> 100 µM	> 100 µM	> 100 µM	> 100 µM	> 100 µM										
O=C(c1ccccc1)[C@@H]1C[C@H](Sc2ccccc2)c2cc(Cl)ccc2N1	66.8 µM		> 100 µM	> 100 µM	56.3 µM	97.6 µM	74.3 µM	> 100 µM	26.5 µM									
Cc1ccc([N+](=O)[O-])cc1NC(=O)c1cccc([N+](=O)[O-])c1O	> 100 µM		95.9 µM	87.2 µM	> 100 µM	33.9 µM	96.6 µM		27.7 µM									
C/C=C1/CCC2c3[nH]c4ccccc4c3CCN2C1 (stereo not drawn)	> 100 µM	86.6 µM	> 100 µM	> 100 µM	> 100 µM	> 100 µM	> 100 µM	> 100 µM	> 100 µM									
CCCC/C=C1\CCC(C)(CN(C)C)C1=O (stereo not drawn)	> 100 µM	> 100 µM	> 100 µM	> 100 µM	> 100 µM	> 100 µM	> 100 µM	> 100 µM	> 100 µM									
COC(=O)[C@]12CC=C3O[C@@H]4OC5(CCCCC5)O[C@@H]4C3[C@@H]1C(=O)CCC2=O (stereo partly drawn)	> 100 µM	> 100 µM	> 100 µM	> 100 µM	> 100 µM	> 100 µM	> 100 µM											
